The source of these data is US10588921B2, “Drug for the treatment of cholesterol accumulation disorders” (NATIONAL UNIVERSITY CORPORATION KUMAMOTO UNIVERSITY, priority 2013, dated 2020).

Entries after “also recorded” stand apart in the source; their conditions may differ.

The test system of one data set is normal mice. The experiment in a line: Acute toxicity test in normal mice. The class given is in vivo, mouse. Particulars: 14.4 mM, 19.18 ml/g subcutaneous, 8-week-old normal mice; FIG. 34. On the procedure: To confirm the excellent safety of HPGCD, acute toxicity was tested using normal mice. 14.4 mM HPBCD or HPGCD were injected in the amount of 19.18 ml/g into subcutaneous tissues of 8-week-old mice (n=10), and then survival rates were calculated.

The test system of data set [1] is NPC-derived HLCs. The experiment in a line: Cell size of HLCs. The data set is classed as cell-based, human. The note with it: data not shown. Here is the method: The cell sizes of albumin-positive cells was calculated by Developer Toolbox software of IN CELL ANALYZER 6000 (GE Healthcare).
(§1) The size of HLCs is decreased by the treatments with HPBCD and HPGCD (data not shown). Effects of various concentration of HPBCD and HPGCD in NPC-derived HLCs was observes. HLCs were cultured with HPBCD or HPGCD for 4 days, stained with filipin and analyzed with an IN CELL ANALYSER (GE Healthcare).

The subject of data set [2] is NPC model mice. The experiment in a line: HPGCD treatment of NPC model mice (serum markers, histology, autophagy). The data set is classed as in vivo, mouse. Here is the method: Effects of HPGCD treatment on cholesterol accumulation in NPC-derived HLCs were evaluated using NPC-model mice. NPC model mice bear a spontaneous mutation of the Npc1 gene that causes a defect in lysosome to ER trafficking of cholesterol. […] The model mice show liver injury and neural functional impairment and die before 12 weeks old without proper treatment.
4-week-old NPC mice were treated with HPGCD (4000 mg/kg) once a week until 8.5 weeks of age (5 injections in total), followed by sample collection. Control was treated with saline. The experiments were conducted twice (first; n=6; second: n=4).

For another data set, the system named is LC3. The experiment in a line: Immunoblot of LC3 expression in HLCs. The class given is cell-based, human. Particulars: 1 mM HPCD, 4 days; FIG. 22. Here is the method:
(§2) Protein lysates were separated by SDS-PAGE and transferred to PVDF membrane. LC3-I and LCS3-II were detected by anti-LC3 antibody (Cell Signaling). The data are normalized to α-tubulin expression. The HLCs were solved in RIPA buffer and then insoluble p62 was collected as a pellet after the centrifuge of the samples.
(§3) HLCs were culture with 1 mM 2-hydroxypropylcyclodextrins (HPCDs) for 4 days, and ATP level, expression levels of LC3 and p62, and insoluble p62 granules were measured.
(In general: In western blotting, separated proteins are transferred to a membrane and probed.)

The test system of data set [3] is NPC-derived HLCs. The class given is cell-based, human. Here is the method:
For hepatocyte-like cell (HLC) induction, the culture medium of semi-confluent human iPS cells were switched from the iPS medium to the definitive endoderm differentiation medium containing RPMI1640 supplemented with 2% B27 (Life technologies), 100 ng/m1 Activin A and 1 mM Sodium butyrate (NaB, SIGMA). The NaB concentration is changed in 0.5 mM on day 2. On day 4, the cells were harvested and re-seeded onto Matrigel-coated dishes in hepatic differentiation medium containing DMEM supplemented with 20% KSR, 1 mM glutamine, 1 mM NEAA, 0.1 mM 2-mercaptoethanol (SIGMA), 1% Dimethyl sulfoxide (DMSO, SIGMA). CXCR4 expressions were examined by FACS on day 4. On day 11, the cells were harvested and re-cultured in the hepatic maturation medium containing L15 medium (SIGMA) supplemented with 8.3% FBS, 8.3% tryptose phosphate broth (SIGMA), 10 mM hydrocortisone 21-hemisuccinate (SIGMA), 1 mM insulin (SIGMA), 2 mM glutamine, lOng/ml Hepatocyte growth factor (HGF, R & D) and 20 ng/ml Oncostatin M (OSM, R & D). On day 18, the cells were used for various experiments. For the hydroxypropyl cyclodextrin treatments, HLCs were cultured with 0.1 mM or 1 mM of the hydroxypropyl cyclodextrins for four days. For Annexin and TUNEL stainings, HLCs are cultured for four days and a week from day 18, respectively.
(§4) Alkaline phosphatase staining was performed using the Leukocyte Alkaline Phosphatase kit (SIGMA). For immunocytochemistry, cells were fixed with PBS containing 4% paraformaldehyde for 30 min at 4° C. For the molecules localized in nucleus, samples were treated with 0.2% Triton X-100 for 15 min at room temperature (RT). The cells were washed three times with PBS containing 2% FBS and then incubated overnight at 4° C. in PBS containing 2% FBS with primary antibodies. Nucleuses were stained with Propidium Iodide (PI, WAKO, Japan) and 1 mg/ml Hoechst 33258 (Invitrogen). The list of the primary and secondary antibodies is described in Table 3. For Filipin staining, samples were washed with PBS three times after the fixing and incubated with PBS containing 1.5 mg/ml glycine for 10 min at RT. The samples were then treated with PBS containing 10% FBS and 50 mg/ml Filipin (SIGMA). The data was calculated by UV absorption (360/460) and analyzed with Developer Toolbox software of IN CELL ANALYZER 6000 (GE Healthcare). The number of insoluble p62 granules were counted by IN CELL ANALYZER 6000 (GE Healthcare). To investigate glycogen accumulation, Periodic acid Schiff (PAS) staining of hepatocyte-like cells were performed by PAS staining solution (Muto Pure chemicals, Tokyo, Japan), according to the manufacturer's protocol.
The inventors therefore treated the HLCs derived from normal and NPC-iPS cell lines with a series of 2-hydroxypropyl-cyclodextrins with different cavity sizes, and observed effect of a series of hydroxypropyl-cyclodextrins. HLCs were cultured with 1 mM of the indicated hydroxypropyl-cyclodextrin for 4 days, stained with filipin and analyzed with an IN CELL ANALYSER (GE Healthcare) (FIG. 18).
as §1

The test system of a further data set is isolated erythrocyte. The note with it: in vitro; cited from earlier work.
Another data set has as its system cultured cells. Particulars: Non-Patent Document 5; cited from earlier work.
Data set [4] deals with p62. Put plainly: Immunoblot of insoluble p62 in HLCs. The data set is classed as cell-based, human. Particulars: 1 mM HPCD, 4 days; FIG. 23. On the procedure: as §2, §3
Data set [5] has as its system NPC-derived HLCs. The experiment in a line: Measurement of ATP in HLCs. The note with it: 1 mM HPCD, 4 days; FIG. 21. The data set is classed as cell-based, human. Here is the method: Hepatocyte-like cells derived from the iPSC lines were cultured in DMEM medium in the absence of glucose for 24 hours and were then cultured in the DMEM medium containing 10% FBS and high glucose for 6 hours. ATP was measured by ATP measurement Kit (TOYO INK), according to the manufacturer's protocol.
as §3

For data set [6], the system named is p62. Put plainly: Count of insoluble p62 granules in HLCs (IN CELL ANALYZER). The note with it: 1 mM HPCD, 4 days; FIG. 24. The data set is classed as cell-based, human. On the procedure:
as §4, with “To investigate glycogen accumulation, Periodic acid Schiff (PAS) staining of hepatocyte-like cells were performed by PAS staining solution (Muto Pure chemicals, Tokyo, Japan), according to the manufacturer's protocol.” left out
as §3

In data set [7] the test system is NPC model mice. The experiment in a line: Survival of NPC model mice. The class given is in vivo, mouse. The note with it: 4-week-old model mice injected once a week; FIG. 33. Here is the method: To evaluate the effect of HPGCD treatment on NPC mice survival, 4-week-old model mice were injected with HPGCD one a week (HPGCD injection group: n=6, control (saline injection) group: n=6).

Where [8] appears, read: 4000 mg/kg once a week from 4 to 8.5 weeks of age, FIG. 30.

As to 2-hydroxypropyl-γ-cyclodextrin [HPGCD], the “survival after injection (acute toxicity)” value with normal mice is “no mice dies”. Besides, the “size of HLCs” value in the data set on NPC-derived HLCs [1] was “decreased”. In the data set on NPC model mice [2] (setting [8]), the “ALT (alanine aminotransferase), serum marker for liver injury” value was “markedly and significantly reduced”; the “AST (aspartate aminotransferase), serum marker for liver injury” value is “markedly and significantly reduced”. Also, the “histological analysis of livers” value with NPC model mice [2] (4000 mg/kg once a week, FIG. 31) was “marked morphological improvement”. Further, in the data set on NPC model mice [2] (4000 mg/kg once a week, FIG. 32), the “deletion of Purkinje cells in the cerebellum” value is “rescued; also recorded: restored”. In the data set with NPC model mice [2] (data not shown), the “abnormal autophagy in NPC mice” value was “restored”; the “expression level of LC3 in livers and brains” value is given as “restored to the normal level”; the “expression level of insoluble p62 in livers and brains” value is “restored to the normal level”. Moreover, the “expression level of LC3” value with LC3 is on record as “recovered to normal levels”. In addition, in the data set on NPC-derived HLCs [3], the “activity on hepatocyte-like cells differentiation-induced from NPC patient-derived iPS cells” value is “equal to or more than that of HPBCD”, the “cholesterol accumulated in hepatocyte-like cells derived from NPC” value is given as “removed cholesterol accumulated in hepatocyte-like cells derived from NPC” and the “function of the hepatocyte-like cells” value is recorded as “recovered the function of the hepatocyte-like cells”. Also, in the data set on NPC-derived HLCs [3] (1 mM hydroxypropyl-cyclodextrin, 4 days, FIG. 18), the “cholesterol accumulation in NPC-HLCs (filipin staining)” value is listed as “reduced the cholesterol accumulation in NPC-HLCs to the same extent as that observed for HPBCD”. Further, the “cholesterol accumulation in NPC-derived HLCs (filipin staining)” value in the data set on NPC-derived HLCs [3] (low concentration 100 μM, 4 days, FIG. 19) is reported as “ineffective for reducing cholesterol accumulation”. For the same substance, in the data set with isolated erythrocyte, the “hemolytic activity (order)” value is on record as “HPBCD>HPACD>HPGCD”. In addition, the cholesterol dissolution activity entry in the data set on cultured cells is recorded as “a several tenth part or less, compared with that of HPBCD”. Further, the “amount of insoluble p62” value in the data set on p62 [4] is “reduced the amount of insoluble p62”. Further, the ATP level entry with NPC-derived HLCs [5] was “recovered”. The “proportion of HLCs carrying more than 40 granules of insoluble p62 aggregation” value in the data set with p62 [6] is listed as “greatly reduced”. Besides, in the data set with NPC model mice [7], the NPC mouse survival result is “significantly prolonged”.
